In ChEMBL document CHEMBL3784981, “Anti-inflammatory, analgesic and antioxidant activities of novel kyotorphin-nitroxide hybrid molecules” (Bioorg Med Chem Lett, 2016):
pEC50: −log10 of the molar value. Activity calls are given as the source filed them.

Legend:
Mus musculus [1] = experiment: Antiinflammatory activity in ICR mouse assessed as inhibition of xylene-induced ear edema at 0.05 umol/kg, po administered 30 mins prior to xylene challenge measured after 2hrs; assay type: functional
Mus musculus [2] = experiment: Analgesic activity in ICR mouse assessed as pain threshold at 0.15 umol/kg administered through oral gavage after 90 mins by tail flick method; assay type: functional
Mus musculus [3] = experiment: Analgesic activity in ICR mouse assessed as pain threshold at 0.1 umol/kg administered through oral gavage after 30 mins by tail flick method; assay type: functional
[4] = Antioxidant activity in H2O2/Fe(II)-stimulated rat PC12 cells assessed as OH radical scavenging activity measured by cell survival preincubated with compound for 1 hr measured after 14 hrs by MTT assay; assay type: functional, cell-based; conditions: pc-12
Mus musculus [5] = experiment: Analgesic activity in ICR mouse assessed as pain threshold at 0.15 umol/kg administered through oral gavage after 60 mins by tail flick method; assay type: functional
Mus musculus [6] = experiment: Analgesic activity in ICR mouse assessed as pain threshold at 0.055 umol/kg administered through oral gavage after 180 mins by tail flick method; assay type: functional
Mus musculus [7] = experiment: Antiinflammatory activity in ICR mouse assessed as inhibition of xylene-induced ear edema at 0.15 umol/kg, po administered 30 mins prior to xylene challenge measured after 2hrs; assay type: functional
HUVEC [8] = experiment: Inhibition of simulated ischemia/reperfusion-induced human HUVEC cells death assessed as increase in tubular mitochondria levels at 30 ug/ml after 2 hrs by Hoechst 33342 dye based fluorescence assay (reference value: 11.3 +/- 2.1 %); assay type: functional; design: scale not given: the % may be the effect or the level left
Mus musculus [9] = experiment: Analgesic activity in ICR mouse assessed as pain threshold at 0.1 umol/kg administered through oral gavage after 180 mins by tail flick method; assay type: functional
Mus musculus [10] = experiment: Antiinflammatory activity in ICR mouse assessed as inhibition of xylene-induced ear edema at 0.1 umol/kg, po administered 30 mins prior to xylene challenge measured after 2hrs; assay type: functional
HUVEC [11] = experiment: Inhibition of simulated ischemia/reperfusion-induced ROS production in human HUVEC cells at 30 ug/ml after 2 hrs by Hoechst 33342 dye based fluorescence assay; assay type: functional, cell-based
[12] = Antioxidant activity in rat PC12 cells assessed as H2O2 radical scavenging activity measured as cell survival preincubated with compound for 1 hr measured after 14 hrs by MTT assay; assay type: functional, cell-based; conditions: pc-12
Mus musculus [13] = experiment: Analgesic activity in ICR mouse assessed as pain threshold at 0.15 umol/kg administered through oral gavage after 150 mins by tail flick method; assay type: functional
Mus musculus [14] = experiment: Analgesic activity in ICR mouse assessed as pain threshold at 0.055 umol/kg administered through oral gavage after 150 mins by tail flick method; assay type: functional
Mus musculus [15] = experiment: Analgesic activity in ICR mouse assessed as pain threshold at 0.05 umol/kg administered through oral gavage after 120 mins by tail flick method; assay type: functional
HUVEC [16] = experiment: Inhibition of simulated ischemia/reperfusion-induced human HUVEC cells death assessed as decrease in fragmented mitochondria at 30 ug/ml after 2 hrs by Hoechst 33342 dye based fluorescence assay; assay type: functional, cell-based
Mus musculus [17] = experiment: Analgesic activity in ICR mouse assessed as pain threshold at 0.15 umol/kg administered through oral gavage after 30 mins by tail flick method; assay type: functional
Mus musculus [18] = experiment: Analgesic activity in ICR mouse assessed as pain threshold at 0.1 umol/kg administered through oral gavage after 60 mins by tail flick method; assay type: functional
Mus musculus [19] = experiment: Analgesic activity in ICR mouse assessed as pain threshold at 0.05 umol/kg administered through oral gavage after 60 mins by tail flick method; assay type: functional
Mus musculus [20] = experiment: Analgesic activity in ICR mouse assessed as pain threshold at 0.1 umol/kg administered through oral gavage after 150 mins by tail flick method; assay type: functional
HUVEC [21] = experiment: Inhibition of simulated ischemia/reperfusion-induced cytochrome C release in human HUVEC cells at 30 ug/ml after 2 hrs by fluorescence assay (reference value: 75.3 +/- 5.2 %); assay type: functional; design: scale not given: the % may be the effect or the level left
Mus musculus [22] = experiment: Analgesic activity in ICR mouse assessed as pain threshold at 0.1 umol/kg administered through oral gavage after 120 mins by tail flick method; assay type: functional
Mus musculus [23] = experiment: Analgesic activity in ICR mouse assessed as pain threshold at 0.05 umol/kg administered through oral gavage after 90 mins by tail flick method; assay type: functional
Mus musculus [24] = experiment: Analgesic activity in ICR mouse assessed as pain threshold at 0.15 umol/kg administered through oral gavage after 120 mins by tail flick method; assay type: functional
Mus musculus [25] = experiment: Analgesic activity in ICR mouse assessed as pain threshold at 0.1 umol/kg administered through oral gavage after 90 mins by tail flick method; assay type: functional
Mus musculus [26] = experiment: Analgesic activity in ICR mouse assessed as pain threshold at 0.15 umol/kg administered through oral gavage after 180 mins by tail flick method; assay type: functional
[27] = Antioxidant activity in sodium nitroprusside-stimulated rat PC12 cells assessed as NO radical scavenging activity measured as cell survival preincubated with compound for 1 hr followed by addition of sodium nitroprusside for 2 measured after 14 hrs by MTT assay; assay type: functional, cell-based; conditions: pc-12
Mus musculus [28] = experiment: Analgesic activity in ICR mouse assessed as pain threshold at 0.05 umol/kg administered through oral gavage after 30 mins by tail flick method; assay type: functional
Mus musculus [29] = experiment: Analgesic activity in ICR mouse assessed as pain threshold at 1 umol/kg administered through oral gavage after 180 mins by tail flick method; assay type: functional
Mus musculus [30] = experiment: Analgesic activity in ICR mouse assessed as pain threshold at 1 umol/kg administered through oral gavage after 150 mins by tail flick method; assay type: functional
Mus musculus [31] = experiment: Analgesic activity in ICR mouse assessed as pain threshold at 1 umol/kg administered through oral gavage after 120 mins by tail flick method; assay type: functional
Mus musculus [32] = experiment: Analgesic activity in ICR mouse assessed as pain threshold at 1 umol/kg administered through oral gavage after 90 mins by tail flick method; assay type: functional
Mus musculus [33] = experiment: Analgesic activity in ICR mouse assessed as pain threshold at 1 umol/kg administered through oral gavage after 60 mins by tail flick method; assay type: functional
Mus musculus [34] = experiment: Analgesic activity in ICR mouse assessed as pain threshold at 1 umol/kg administered through oral gavage after 30 mins by tail flick method; assay type: functional

Structure (SMILES) | inhibition (INH) (Mus musculus [1]) [%] | Activity (Mus musculus [2]) [%] | Activity (Mus musculus [3]) [%] | pEC50 [4] | Activity (Mus musculus [5]) [%] | Activity (Mus musculus [6]) [%] | inhibition (INH) (Mus musculus [7]) [%] | Activity (HUVEC [8]) [%] | Activity (Mus musculus [9]) [%] | inhibition (INH) (Mus musculus [10]) [%] | Activity (HUVEC [11]) | pEC50 [12] | Activity (Mus musculus [13]) [%] | Activity (Mus musculus [14]) [%] | Activity (Mus musculus [15]) [%] | Activity (Mus musculus [18]) [%] | Activity (Mus musculus [20]) [%] | Activity (Mus musculus [22]) [%] | Activity (Mus musculus [25]) [%] | pEC50 [27] | other results
CC1(C)N([O])C(c2ccc(OCC(=O)NCCNC(=O)[C@H](Cc3ccc(O)cc3)NC(=O)[C@@H](N)CCCNC(=N)N)cc2)=[N+]([O-])C1(C)C | 21.21 | 32.33 | 15.28 | 4.47 | 28.65 | 9.14 | 58.15 | 41.5 | 23.15 | 50.68 | Active | 4.49 | 39.13 | 11.91 | 15.78 | 25.75 | 37.11 | 48.17 | 35.74 | 4.71 | inhibition (HUVEC [16]): Active; Activity (Mus musculus [17]): 17.89%; Activity (Mus musculus [19]): 10.35%; Activity (HUVEC [21]): 47.8%; Activity (Mus musculus [23]): 13.57%; Activity (Mus musculus [24]): 50.61%; Activity (Mus musculus [26]): 27.67%; Activity (Mus musculus [28]): 7.48%
Cc1cc(C[C@H](NC(=O)COc2ccc(C3=[N+]([O-])C(C)(C)C(C)(C)N3[O])cc2)C(=O)N[C@@H](CCCNC(=N)N)C(=O)O)ccc1O |  |  | 10.24 | 4.64 |  |  |  |  | 12.38 | 29.47 |  | 4.50 |  |  |  | 18.97 | 13.25 | 31.21 | 22.1 | 5.09 | 
CC1(C)N([O])C(c2ccc(OCC(=O)O)cc2)=[N+]([O-])C1(C)C |  |  |  |  |  |  |  |  |  |  |  |  |  |  |  |  |  |  |  |  | Activity (Mus musculus [29]): 13.05%; Activity (Mus musculus [30]): 21.11%; Activity (Mus musculus [31]): 23.18%; Activity (Mus musculus [32]): 20.97%; inhibition in vivo at 0.1 µmol/kg (Mus musculus [10]; Mus musculus, ICR, Ear, po): 29.7%; Activity (Mus musculus [33]): 12.31%; Activity (Mus musculus [34]): 9.1%
CC1(C)N([O])C(c2ccc(OCC(=O)NCCCNC(=O)[C@H](Cc3ccc(O)cc3)NC(=O)[C@@H](N)CCCNC(=N)N)cc2)=[N+]([O-])C1(C)C | 37.33 | 50.35 | 16.3 | 4.64 | 33.47 | 16.28 | 78.58 | 55.7 | 22.01 | 73.47 | Active | 4.50 | 52.45 | 19.35 | 25.36 | 29.36 | 51.33 | 60.32 | 44.76 | 5.09 | inhibition (HUVEC [16]): Active; Activity (Mus musculus [17]): 20.17%; Activity (Mus musculus [19]): 12.31%; Activity (HUVEC [21]): 27.8%; Activity (Mus musculus [23]): 18.37%; Activity (Mus musculus [24]): 68.42%; Activity (Mus musculus [26]): 30.34%; Activity (Mus musculus [28]): 8.16%
CC1(C)N([O])C(c2ccc(OCC(=O)N[C@@H](CCCNC(=N)N)C(=O)N[C@@H](Cc3ccc(O)cc3)C(=O)O)cc2)=[N+]([O-])C1(C)C |  |  | 10.1 | 4.64 |  |  |  |  | 10.05 | 28.29 |  | 4.50 |  |  |  | 14.31 | 11.91 | 13.18 | 26.97 | 5.09 | 
CC1(C)N([O])C(c2ccc(OCC(=O)N[C@@H](Cc3ccc(O)cc3)C(=O)N[C@@H](CCCCN)C(=O)O)cc2)=[N+]([O-])C1(C)C |  |  | 12.56 | 4.64 |  |  |  |  | 13.58 | 36.94 |  | 4.50 |  |  |  | 19.35 | 33.73 | 38.33 | 29.31 | 5.09 | 
